Experimental data: article PMC3501516, “Anti-Diabetic Efficacy and Impact on Amino Acid Metabolism of GRA1, a Novel Small-Molecule Glucagon Receptor Antagonist” (PLoS ONE, 2012)
Marks after values point to notes of the source that are not given here.

Tested on: DIO hGCGR mice
Assay: Chronic GRA1 treatment of diet-induced obese (DIO) hGCGR mice
Format: in vivo, hGCGR mouse
Conditions: for Free fatty acid, terminal plasma / Insulin, terminal plasma / LDL cholesterol, terminal plasma / Glucagon, terminal plasma / Triglyceride, terminal plasma / Non-LDL cholesterol, terminal plasma / Cholesterol, terminal plasma: 10 weeks; for Free fatty acid, terminal plasma: control 1.04±0.13; for Insulin, terminal plasma: control 8.5±2.0; for LDL cholesterol, terminal plasma: control 19.6±2.3; for Glucagon, terminal plasma: control 164±24; for Triglyceride, terminal plasma: control 181±11; for Non-LDL cholesterol, terminal plasma: control 205±12; for Cholesterol, terminal plasma: control 233±15
Excerpt: The present study made use of a line of hGCGR-expressing mouse (“hGCGR mouse”) generated previously by substituting the hGCGR gene for the mouse GCGR gene. These mice were crossed with C57BL/6J.ob/+ mice (Jackson Laboratories, Bar Harbor, ME) to obtain an hGCGR.ob/+ mouse line. The hGCGR.ob/+ mice were then intercrossed to obtain hGCGR.ob/ob, hGCGR.ob/+, and hGCGR.+/+ mice (with the hGCGR.ob/+ and hGCGR.+/+ mice serving as littermate controls). […] obese (DIO) hGCGR mice were generated by maintaining hGCGR mice on a high-fat diet (HFD) in which 45–60% of calories were in fat (Product S3282, Bio-Serv, Frenchtown, NJ). High-fat-diet-streptozotocin-treated (HFD/STZ) diabetic mice were generated in-house as previously described.
Animals were dosed chronically with GRA1 and the DPP-4 inhibitor des-fluoro-sitagliptin by administering these agents as food admixtures. The admixtures were prepared in-house and by Research Diets (New Brunswick, NJ), with drug concentrations adjusted weekly on the basis of average food consumption and animal weight to provide targeted daily doses. In the GRA1 experiments, the targeted doses were 3, 6, 10, and 30 mg/kg•day. In des-fluoro-sitagliptin experiments, the targeted dose was 200 mg/kg•day, a relatively high amount necessary because this compound has a half-life in rodents of 1–2 h.
Plasma glucagon and active GLP-1 were measured using commercial ELISA kits (Linco Research Immunoassay, St. Charles, MO). […] Plasma insulin was determined by ELISA with a commercial kit (ALPCO Diagnostics, Windham, NH). Plasma concentrations of glycated hemoglobin A1c (HbA1c) were measured using a Micromat II test kit from Bio-Rad Laboratories (Hercules, CA). Total cholesterol, low-density lipoprotein cholesterol (LDL-c) and non-LDL-c, and aspartate aminotransferase were measured using a Roche P Modular Clinical Chemistry analyzer (Indianapolis, IN).
Figure 4 GRA1 lowers blood glucose in the DIO hGCGR and hGCGR.ob/ob mouse. Mean (±SEM) blood glucose concentrations in (A) non-fasted and (B) fasted DIO hGCGR mice treated with approximately 3 and 10 mg/kg·day GRA1 provided as a food admixture. (Additional data from this study are in Table 2). (C) Mean (±SEM) blood glucose concentrations in the hGCGR.ob/ob mouse following single oral doses of 1, 3, or 10 mg/kg GRA1 or vehicle. (D) Mean (±SEM) non-fasted blood glucose concentrations in hGCGR.ob/ob mice treated for 2–8 weeks with control diet or 10 mg/kg·day GRA1 administered as diet admixture. *p<0.05, **p<0.01, and ***p<0.001 in timepoint-matched comparisons with controls; n = 8 in each group.

COc1ccc2cc(-c3cc(-c4cc(C(F)(F)F)ccc4F)nn3[C@@H](C)c3ccc(C(=O)NCCC(=O)O)cc3)ccc2c1 [GRA1, N-[4-((1S)-1-{3-(2-fluoro-5-trifluoromethylphenyl)-5-[6-methoxynaphth-2-yl]-1H-pyrazol-1-yl}ethyl)benzoyl]-β-alanine]
Effect on blood glucose (1–10 weeks, 3 or 10 mg/kg•day): significant, sustained reductions in blood glucose | Food intake and body weight (3 or 10 mg/kg•day (data not shown)): not affected | Increase of plasma glucagon (3 or 10 mg/kg•day (either dose)): approximately 2 fold | Free fatty acid, terminal plasma (3 mg/kg•day): 0.84 ± 0.08 mM | Insulin, terminal plasma (3 mg/kg•day): 4.2 ± 1.1 ng/mL | LDL cholesterol, terminal plasma (3 mg/kg•day): 25.4±2.9 mg/dLl | Glucagon, terminal plasma (3 mg/kg•day): 374±53* pg/mL | Triglyceride, terminal plasma (3 mg/kg•day): 141±13* mg/dL | Non-LDL cholesterol, terminal plasma (3 mg/kg•day): 216 ± 16 mg/dL | Cholesterol, terminal plasma (3 mg/kg•day): 255 ± 17 mg/dL | Free fatty acid, terminal plasma (10 mg/kg•day): 0.69±0.04* mM | Insulin, terminal plasma (10 mg/kg•day): 5.7 ± 1.4 ng/mL | LDL cholesterol, terminal plasma (10 mg/kg•day): 19.4±2.4 mg/dLl | Glucagon, terminal plasma (10 mg/kg•day): 343 ± 85 pg/mL | Triglyceride, terminal plasma (10 mg/kg•day): 122±10** mg/dL | Non-LDL cholesterol, terminal plasma (10 mg/kg•day): 186 ± 7 mg/dL | Cholesterol, terminal plasma (10 mg/kg•day): 213 ± 8 mg/dL | Islet morphology and ratio of insulin-positive to glucagon-positive cells (pancreas immunohistochemistry) (treated vs control (data not shown)): no significant differences
